The subject of data set [1] is Aβtotal. Description: γ-secretase-modulating activity, Method 2: Aβtotal Alphalisa in supernatant of SKNBE2 cells carrying APP 695-wild type (Table 3b). Format: cell-based. The conditions noted are these: overnight, read-out: IC50 Aβtot. The method in brief: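 Secreted Aβtotal was quantified by AlphaLISA pairing an N-terminal antibody (JRF/AβN/25) with biotinylated mid-region 4G8. Wild-type APP 695 SKNBE2 cells received serially varied compound overnight at 37 °C; IC50 came from a 4-parameter nonlinear regression of percent of control against log dose.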
(Bead proximity is the source of the signal in Alpha formats.)

Data set [2] concerns Aβ42. Put plainly: γ-secretase-modulating activity, Method 1: Aβ42 sandwich ELISA in supernatant of SKNBE2 cells carrying APP 695-wild type (Table 3a). Format: cell-based. The conditions noted are these: 18 h, averaged IC50 values. How it is done: (§1) Pharmacology A) Screening of the Compounds of the Invention for γ-Secretase-Modulating Activity A1) Method 1
(§2) Screening was carried out using SKNBE2 cells carrying the APP 695-wild type, grown in Dulbecco's Modified Eagle's Medium/Nutrient mixture F-12 (DMEM/NUT-mix F-12) (HAM) provided by Gibco (cat no. 31330-38) containing 5% Serum/Fe supplemented with 1% non-essential amino acids. Cells were grown to near confluency.
(§3) The screening was performed using the assay as described in Citron et al (1997) Nature Medicine 3: 67. Briefly, cells were plated in a 96-well plate at about 10^5 cells/ml one day prior to addition of compounds. Compounds were added to the cells in Ultraculture (Lonza, BE12-725F) supplemented with 1% glutamine (Invitrogen, 25030-024) for 18 h. The media were assayed by two sandwich ELISAs, for Aβ42 and Aβtotal. Toxicity of the compounds was assayed by WST-1 cell proliferation reagent (Roche, 1 644 807) according to the manufacturer's protocol.
To quantify the amount of Aβ42 in the cell supernatant, commercially available Enzyme-Linked-Immunosorbent-Assay (ELISA) kits were used (Innotest® β-Amyloid(1-42), Innogenetics N.V., Ghent, Belgium). The Aβ42 ELISA was performed essentially according to the manufacturer's protocol. Briefly, the standards (dilutions of synthetic Aβ1-42) were prepared in polypropylene Eppendorf with final concentrations of 8000 down to 3.9 pg/ml (1/2 dilution step). Samples, standards and blanks (100 μl) were added to the anti-Aβ42-coated plate supplied with the kit (the capture antibody selectively recognizes the C-terminal end of the antigen). The plate was allowed to incubate 3 h at 25° C. in order to allow formation of the antibody-amyloid complex. Following this incubation and subsequent wash steps a selective anti-Aβ-antibody conjugate (biotinylated 3D6) was added and incubated for a minimum of 1 hour (h) in order to allow formation of the antibody-Amyloid-antibody-complex. After incubation and appropriate wash steps, a Streptavidine-Peroxidase-Conjugate was added, followed 30 minutes later by an addition of 3,3′,5,5′-tetramethylbenzidine (TMB)/peroxide mixture, resulting in the conversion of the substrate into a coloured product. This reaction was stopped by the addition of sulfuric acid (0.9 N) and the colour intensity was measured by means of photometry with an ELISA-reader with a 450 nm filter.
To obtain the values reported in Table 3a, the data were calculated as percentage of the maximum amount of amyloid Beta 42 measured in the absence of the test compound. The sigmoidal dose response curves were analyzed using non-linear regression analysis with percentage of the control plotted against the log concentration of the compound. A 4-parameter equation was used to determine the IC50. The values reported in Table 3a are averaged IC50 values.
(In general: An ELISA detects its analyte on a solid surface through an enzyme-linked reagent.)

The subject of data set [3] is Aβ42. Put plainly: γ-secretase-modulating activity, Method 2: Aβ42 Alphalisa in supernatant of SKNBE2 cells carrying APP 695-wild type (Table 3b). Format: cell-based. The conditions noted are these: overnight. In outline: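 Aβ42 in the supernatant was quantified by AlphaLISA sandwich (JRF/cAβ42/26 with JRF/AβN/25). Cells were wild-type APP695 SKNBE2, exposed to compound overnight at 37° C., 5% CO2. Data were normalised to untreated maximum and fitted with a four-parameter curve to give IC50.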

Data set [4] relates to Aβtotal. Put plainly: γ-secretase-modulating activity, Method 1: Aβtotal sandwich ELISA in supernatant of SKNBE2 cells carrying APP 695-wild type. Conditions: Table 3a, 18 h, averaged IC50 values. Format: cell-based. How it is done: as §1, §2, §3
To quantify the amount of Aβtotal in the cell supernatant, samples and standards were added to a 6E10-coated plate. The plate was allowed to incubate overnight at 4° C. in order to allow formation of the antibody-amyloid complex. Following this incubation and subsequent wash steps a selective anti-Aβ-antibody conjugate (biotinylated 4G8) was added and incubated for a minimum of 1 h in order to allow formation of the antibody-Amyloid-antibody-complex. After incubation and appropriate wash steps, a Streptavidine-Peroxidase-Conjugate was added, followed 30 minutes later by an addition of Quanta Blu fluorogenic peroxidase substrate according to the manufacturer's instructions (Pierce Corp., Rockford, Ill.).

Among the data in patent US8946266B2, “Substituted triazole and imidazole derivatives as gamma secretase modulators” (Janssen Pharmaceuticals, Inc., priority 2009, dated 2015) are IC50 and melting point values, retold here.

As usually defined, the IC50 is the concentration needed to halve the response being measured. Usually melting point stands for the temperature of the solid-liquid transition.

Bounds are passed on as bounds.

`COc1cc(-c2nc(C)n(-c3ccc(F)cc3)n2)ccc1-n1cnc(C)c1` [Compound 3] displayed a melting point of 157.3 °C. In the data set with Aβtotal [1] (Homo sapiens), the IC50 was > 10000 nM. This compound yielded an IC50 in the data set with Aβ42 [2] (Homo sapiens) of 490 nM. The compound also gave an IC50 with Aβ42 [3] (Homo sapiens) of 417 nM. Moreover, the concentration for half-maximal inhibition (IC50) in the data set with Aβtotal [4] (Homo sapiens) was > 3000 nM.
As for `COc1cc(-c2nc(C)c(-c3cccc(C(F)(F)F)c3)[nH]2)ccc1-n1cnc(C)c1` [Compound 12], the IC50 in the data set on Aβtotal [1] (Homo sapiens) was 3630 nM; in the data set with Aβ42 [2] (Homo sapiens), 90 nM; in the data set on Aβ42 [3] (Homo sapiens) it was 33 nM; in the data set with Aβtotal [4] (Homo sapiens), > 3000 nM.
Take `COc1cc(-c2nc(C)c(-c3cccc(C(F)(F)F)c3)n2C)ccc1-n1cnc(C)c1` [Compound 13]: the IC50 in the data set with Aβtotal [1] was > 10000 nM; with Aβ42 [2], 1050 nM; with Aβ42 [3], 724 nM; with Aβtotal [4], > 3000 nM.
Taken in the same sequence, the figures for `COc1cc(-c2nc(-c3cccc(C(F)(F)F)c3)c(C)n2C)ccc1-n1cnc(C)c1` [Compound 14] were 5250 nM, 500 nM, 282 nM and > 3000 nM.
For the compound `Cc1cn(-c2ccc(-c3nc(Nc4cccc(C(F)(F)F)c4)n[nH]3)cn2)cn1` [Compound 24], the IC50 in the data set on Aβtotal [1] (Homo sapiens) was 6610 nM; in the data set with Aβ42 [2] (Homo sapiens) it was 1450 nM; in the data set with Aβ42 [3] (Homo sapiens) it was 1050 nM; in the data set on Aβtotal [4] (Homo sapiens), > 3000 nM.
As to `COc1cc(-c2nc(C)c(C)[nH]2)ccc1-n1cnc(C)c1` [Compound 25], the IC50 was > 10000 nM in the data set with Aβtotal [1], 2510 nM with Aβ42 [2], 6460 nM with Aβ42 [3] and > 3000 nM in the data set on Aβtotal [4].
Turning to `COc1cc(-c2nc(CC(C)C)c(C)[nH]2)ccc1-n1cnc(C)c1` [Compound 26], the IC50 in the data set on Aβ42 [2] was 760 nM; in the data set with Aβtotal [4] it was > 3000 nM.
With `COc1cc(-n2cnc(C)c2)ccc1-c1nc(-c2ccccc2)c(C)[nH]1` [Compound 27], the IC50 is > 3000 nM with Aβtotal [1], 170 nM in the data set on Aβ42 [2], < 3000 nM in the data set with Aβ42 [3] and > 10000 nM in the data set on Aβtotal [4].
On the same counts, the results for `COc1cc(-c2nc(-c3ccccc3)c(C)[nH]2)ccc1-n1cnc(C)n1` [Compound 28] are > 3000 nM, > 3000 nM, > 3000 nM and > 3000 nM.
On the same counts, the results for `CCCc1[nH]c(-c2ccc(-n3cnc(C)c3)c(OC)c2)nc1-c1ccccc1` [Compound 29] are > 10000 nM, 190 nM, 170 nM and > 3000 nM.
The compound `COc1cc(-c2nc(Nc3cc(C(C)(C)O)ccc3F)n(C)n2)ccc1-n1cnc(C)c1` [Compound 175] returned a melting point of 193.8 °C. In addition, the IC50 with Aβtotal [1] (Homo sapiens) was > 10000 nM. Also, inhibition in the data set with Aβ42 [3] (Homo sapiens) was half-maximal at 89 nM (IC50).
Taken in the same sequence, the figures for `COc1ccc(CO)c(Nc2nc(-c3ccc(-n4cnc(C)c4)c(OC)c3)nn2C)c1` [Compound 200] were 235.2 °C, > 10000 nM and 158 nM.
On the same counts, the results for `COc1cc(-c2nc(Nc3cccc(C(F)(F)F)n3)n(C)n2)ccc1-n1cnc(C)c1` [Compound 236] are 240 °C, > 10000 nM and 575 nM.
As to `COc1cc(-c2nc3n(n2)CCCC3c2ccc(F)cc2)ccc1-n1cnc(C)c1` (stereo not shown) [Compound 251], the melting point is 190.5 °C. Moreover, the IC50 in the data set with Aβtotal [1] (Homo sapiens) was > 10000 nM. In the data set with Aβ42 [3] (Homo sapiens), this compound had a half-inhibitory concentration (IC50) of 245 nM.
On the same counts, the results for `COc1cc(-c2nc3n(n2)CCCC3c2ccc(F)cc2C)ccc1-n1cnc(C)c1` (stereo not shown) [Compound 258] are 241.8 °C, > 10000 nM and 62 nM.
Turning to `COc1cc(-c2nc3n(n2)CCN(C)C3c2ccccc2C(F)(F)F)ccc1-n1cnc(C)c1` (stereo not shown) [Compound 275], the melting point stood at 154.26 °C. For the same compound, in the data set on Aβtotal [1] (Homo sapiens), the IC50 is > 10000 nM. Also, the midpoint of inhibition in the data set on Aβ42 [3] (Homo sapiens), the IC50, lay at 269 nM.
On the same counts, the results for `COc1cc(-c2nc3n(n2)CCNC3c2ccccc2C(F)(F)F)ccc1-n1cnc(C)c1` (stereo not shown) [Compound 278] are 183 °C, > 10000 nM and 398 nM.
Taken in the same sequence, the figures for `COc1cc(-c2nc3n(n2)CCOC3c2cc(OC(F)(F)F)ccc2F)ccc1-n1cnc(C)c1` (stereo not shown) [Compound 281] were 232.1 °C, > 10000 nM and 76 nM.
Compound `COc1cc(-c2nc3nccc(-c4ccccc4C(F)(F)F)n3n2)ccc1-n1cnc(C)c1` [Compound 290] showed a melting point of 191 °C. Moreover, the IC50 in the data set on Aβtotal [1] (Homo sapiens) is > 10000 nM. The compound also gave a 50% inhibitory concentration (IC50) in the data set with Aβ42 [3] (Homo sapiens) of 224 nM.
Taken in the same sequence, the figures for `COc1cc(-c2nc3nc(-c4ccccc4C(F)(F)F)ccn3n2)ccc1-n1cnc(C)c1` [Compound 291] were 193.4 °C, 9770 nM and 45 nM.
`COc1cc(-c2nc3c(-c4ccccc4C(F)(F)F)nccn3n2)ccc1-n1cnc(C)c1` [Compound 294] gave a melting point of 176.9 °C. Moreover, in the data set on Aβtotal [1] (Homo sapiens), the IC50 is > 10000 nM. In the data set with Aβ42 [3] (Homo sapiens), this compound came in with an IC50 of 537 nM.
Regarding `COc1cc(-c2nc3cncc(-c4ccc(F)cc4C)n3n2)ccc1-n1cnc(C)c1` [Compound 295], the melting point turned out to be 210.7 °C. The 50% inhibitory concentration (IC50) in the data set on Aβtotal [1] (Homo sapiens) was > 10000 nM. In addition, the IC50 with Aβ42 [3] (Homo sapiens) worked out at 537 nM.
For the compound `COc1cc(-c2nc(-c3ccccc3)c(C)[nH]2)ccc1-n1ncnc1C` [Compound 299], the IC50 in the data set on Aβtotal [1] is > 10000 nM; in the data set with Aβ42 [2] it was > 3000 nM; in the data set with Aβ42 [3], 8130 nM; in the data set on Aβtotal [4], > 3000 nM.
